The values below come from patent US11472806B2, “Substituted heterocyclic compounds as allosteric modulators of group II metabotropic glutamate receptors” (Domain Therapeutics, priority 2017, dated 2022).

Molecules are shown by their SMILES. Where a name gives a salt, the structure may show the parent alone. Some results are limits rather than exact numbers.

T1 sequence (Q14832 23-879): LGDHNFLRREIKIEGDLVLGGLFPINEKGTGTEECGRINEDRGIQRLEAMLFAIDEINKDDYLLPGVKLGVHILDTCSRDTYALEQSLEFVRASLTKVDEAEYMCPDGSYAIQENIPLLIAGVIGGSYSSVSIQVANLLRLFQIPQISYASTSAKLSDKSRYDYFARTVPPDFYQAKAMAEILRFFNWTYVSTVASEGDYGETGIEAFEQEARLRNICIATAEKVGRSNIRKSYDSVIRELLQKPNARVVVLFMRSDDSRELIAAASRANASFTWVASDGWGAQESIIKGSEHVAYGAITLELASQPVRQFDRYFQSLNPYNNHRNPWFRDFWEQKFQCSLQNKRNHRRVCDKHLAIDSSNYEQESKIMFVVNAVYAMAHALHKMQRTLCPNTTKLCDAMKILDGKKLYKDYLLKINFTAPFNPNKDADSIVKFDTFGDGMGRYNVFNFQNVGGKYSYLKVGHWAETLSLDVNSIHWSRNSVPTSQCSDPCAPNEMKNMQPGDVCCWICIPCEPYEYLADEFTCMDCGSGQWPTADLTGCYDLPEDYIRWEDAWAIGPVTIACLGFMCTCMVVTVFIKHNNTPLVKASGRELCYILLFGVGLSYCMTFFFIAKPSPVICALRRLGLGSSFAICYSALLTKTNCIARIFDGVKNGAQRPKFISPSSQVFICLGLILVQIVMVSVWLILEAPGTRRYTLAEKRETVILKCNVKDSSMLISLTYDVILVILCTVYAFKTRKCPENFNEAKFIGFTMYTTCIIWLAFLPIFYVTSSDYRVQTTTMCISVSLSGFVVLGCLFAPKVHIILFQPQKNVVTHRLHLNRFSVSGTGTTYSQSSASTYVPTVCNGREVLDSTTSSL

The first data set concerns the target T1, human mGluR3 (hmGluR3) (Homo sapiens, UniProt Q14832).
T1 construct: expressed in transfected cells; host or cells: HEK-293 cells, transient co-transfection by electroporation
Kind of data set: Human mGluR3 positive allosteric modulator evaluation using Ca++ functional assay. The class given is cell-based. To be noted: hmGluR3 transiently over-expressed in HEK-293 cells; cells stimulated by an EC50 glutamate concentration; intracellular Ca2+ (Fluo4AM, FLIPR Tetra). As to the method:
Example 89: Human mGluR3 Positive Allosteric Modulator Evaluation Using Ca++ Functional Assay
Compounds of the present invention were tested successively for their agonist and positive allosteric modulator activities on human mGluR3 (hmGluR3) transiently over-expressed in HEK-293 cells. Compounds exert agonist activity if they are able to activate hmGluR3 by themselves, i.e., in absence of the endogenous agonist glutamate; and they exert positive allosteric modulator activity if they increase the action of the endogenous agonist glutamate.
Cell Culture and Transfection:
HEK-293 cells were maintained in Modified Eagle's Medium supplemented with 10% Foetal Calf Serum, 1% Penicillin/Streptomycin and 1% non-essential amino acids at 37° C./5% CO2. Cells were co-transfected by electroporation with four DNA plasmids encoding hmGluR3, a chimeric G protein allowing redirection of the activation signal toward intracellular calcium pathway, and two glutamate transporters so as to decrease extracellular glutamate levels and avoid receptor desensitization (Brabet I et al., Neuropharmacology 37(8), 1043-51, 1998). After transfection, cells were seeded in 75 cm^2 culture flasks, and cultured for 24 h.
Calcium Assa EC50 determination:
Receptor activity was detected by changes in intracellular calcium measured using the fluorescent Ca^2+ sensitive dye, Fluo4AM (Molecular Probes).
The day of the assay, medium was aspirated and replaced during 3 hrs by freshly prepared buffer B (HBSS 1×, Hepes 20 mM, MgSO4-7H2O 1 mM, Na2CO3 3.3 mM, CaCl2-2H2O 1.3 mM, 0.5% BSA, Probenecid 2.5 mM). Then, cells were loaded at 37° C./5% CO2 for 1.5 hrs with buffer B containing 1 μM Fluo4AM, 0.1 mg/mL Pluronic Acid, 7 μg/mL Glutamate Pyruvate Transaminase and 2 mM sodium pyruvate. Afterwards cells were washed with buffer B. Cells were then detached from the 75 cm^2 culture flasks with Accutase® (5 min incubation at 37° C.), centrifuged (5 min at 840 rpm), resuspended in buffer B and finally seeded at a density of 30,000 cells/well in black-walled clear-bottom 384-well plates. Addition of compounds on cells and intracellular Ca^2+ measurements (excitation 485 nm, emission 525 nm) were performed by the fluorescence microplate reader FLIPR Tetra (Molecular Devices).
Agonist and positive allosteric modulator activities of compounds were consecutively evaluated on the same cells plate. Agonist activity was first tested during 10 min with the addition of compound alone on the cells. Then, the cells were stimulated by an EC50 glutamate concentration and fluorescence was recorded for additional 3 min. EC50 glutamate concentration is the concentration giving 50% of the maximal glutamate response. Agonist and/or positive allosteric modulator activity(ies) were evaluated in comparison to basal signal or signal evoked by EC50 glutamate concentration alone, respectively.
For potency determination, a dose-response test was performed using 20 concentrations of each compound of the invention. Dose-response curves were fitted using the sigmoïdal dose-response (variable slope) analysis in XLfit Scientific Curve Fitting for Excel (IDBS). EC50 of agonist/EC50 of positive allosteric modulator activity(ies) were calculated. Dose-response experiments were all performed in duplicate, two times independently.
With `COCn1cc2c(n1)C(=O)N(C)C1(CC1)c1ccc(-c3ccc(F)cn3)cc1-2` [Example 76, 2-(Methoxymethyl)-5-methyl-9-(5-fluoro-pyridin-2-yl)-2H-spiro[benzo[c]pyrazolo[4,3-e]azepine-6,1′-cyclopropan]-4(5H)-one], the EC50 was under 100 nM.
`COCCn1cc2c(n1)C(=O)N(C)Cc1ccc(-c3cccnc3C)cc1-2` [Example 72, 2-(2-Methoxy-ethyl)-5-methyl-9-(2-methyl-pyridin-3-yl)-5,6-dihydro-2H-2,3,5-triaza-benzo[e]azulen-4-one]: the EC50 lay within 1000 to 10000 nM.
Take `CN1Cc2ncc(-c3cccc(C#N)c3)cc2-n2cccc2C1=O` [Example 11, 3-(5-Methyl-4-oxo-5,6-dihydro-4H-5,7,1 b-triaza-benzo[e]azulen-9-yl)-benzonitrile]: the EC50 is over 10000 nM.
In turn, `Cc1ncccc1-c1ccc2c(c1)-c1ccc(F)nc1C(=O)N(C)C2` [Example 30, 3-Fluoro-6-methyl-10-(2-methyl-pyridin-3-yl)-6,7-dihydro-4,6-diaza-dibenzo[a, c]cyclohepten-5-one] had an EC50 of 1000 to 10000 nM.
Same read-out and setting: in the case of `Cc1ccc2c(n1)C(=O)N(C)Cc1ccc(-c3ccc(F)nc3)cc1-2` [Example 39, 10-(6-Fluoro-pyridin-3-yl)-3,6-dimethyl-6,7-dihydro-4,6-diaza-dibenzo[a, c]cyclohepten-5-one] it was 100 to 1000 nM.
Same read-out and setting: next, `Cc1ncccc1-c1ccc2c(c1)-c1cc(F)cnc1C(=O)N(C)C2` [Example 46, 2-Fluoro-6-methyl-10-(2-methyl-pyridin-3-yl)-6,7-dihydro-4,6-diaza-dibenzo[a, c]cyclohepten-5-one]: 1000 to 10000 nM.
In the case of `Cc1ccc2c(n1)C(=O)N(C)Cc1ccc(-c3cccnc3C)cc1-2` [Example 41, 3,6-Dimethyl-10-(2-methyl-pyridin-3-yl)-6,7-dihydro-4,6-diaza-dibenzo[a, c]cyclohepten-5-one], the EC50 lay in the range of 100 to 1000 nM.
For `CN1Cc2ccc(-c3cccc(C#N)c3)cc2-c2cccnc2C1=O` [Example 25, 3-(6-Methyl-5-oxo-6,7-dihydro-5H-4,6-diaza-dibenzo[a,c]cyclohepten-10-yl)-benzonitrile], the EC50 is 100 to 1000 nM.

System in another data set: not given
Assay: not given
Details: not given
Take `Cc1ncccc1-c1cnc2c(c1)-n1cccc1C(=O)N(C)C2` (as salt: hydrochloride) [Example 6, 5-Methyl-9-(2-methyl-pyridin-3-yl)-5,6-dihydro-5,7,10b-triaza-benzo[e]azulen-4-one, dihydrochloride]: the melting point is over 250 °C.
On the same count and under the same terms, next, `COCn1cc2c(n1)C(=O)N(C)C1(CC1)c1ccc(-c3ccc(F)nc3)cc1-2` [Example 75, 2-(Methoxymethyl)-5-methyl-9-(6-fluoro-pyridin-3-yl)-2H-spiro[benzo[c]pyrazolo[4,3-e]azepine-6,1′-cyclopropan]-4(5H)-one]: 198 to 200 °C; `COCn1cc2c(n1)C(=O)N(C)C1(CC1)c1ccc(-c3ccc(F)cn3)cc1-2` [Example 76, 2-(Methoxymethyl)-5-methyl-9-(5-fluoro-pyridin-2-yl)-2H-spiro[benzo[c]pyrazolo[4,3-e]azepine-6,1′-cyclopropan]-4(5H)-one]: 219 to 223 °C.
`Cc1ncccc1-c1cc2c(nn1)CN(C)C(=O)c1cccn1-2` (as salt: hydrochloride) [Example 8, 5-Methyl-9-(2-methyl-pyridin-3-yl)-5,6-dihydro-5,7,8,10b-tetraaza-benzo[e]azulen-4-one, dihydrochloride] displayed a melting point of over 250 °C.
Same read-out and setting: next, `Cc1ncccc1-c1ccc2c(c1)-c1ccccc1C(=O)N(C)C21CC1` (as salt: hydrochloride) [Example 21, 10-(2-Methyl-pyridin-3-yl)-6-methyl-6,7-dihydro-spiro[dibenzo[c,e]azepine-7,1′-cyclopropan]-5-one, hydrochloride]: over 250 °C.
The same measure, in the same setting: in the case of `Cc1ncccc1-c1cnc2c(n1)-n1cccc1C(=O)N(C)C2` (as salt: hydrochloride) [Example 7, 5-Methyl-9-(2-methyl-pyridin-3-yl)-5,6-dihydro-5,7,10,10b-tetraaza-benzo[e]azulen-4-one, dihydrochloride] it was over 250 °C.
